Patent publication US20150335535A1, “DENTAL ADHESIVE” (DENTSPLY INTERNATIONAL INC., priority 2008, published 2015)
One block for each molecule: values may come before it.

Assay: Thermal stability of test formulation on storage at 60° C. until thermal polymerization
Format: physicochemical
Settings: for sufficient thermal stability: inhibitor in test formulation; for thermal stability of formulation FBE-05.44.01: all columns dark shaded
Description: A series of test formulations containing different thermal polymerization inhibitors was prepared in order to illustrate the surprising thermal stability of a dental adhesive composition according to the present invention. Test formulations containing different inhibitors or inhibitor concentrations were stored in Prime&Bond NT bottles ([…]) at 60° C. until thermal polymerization. The bottles were daily examined by shaking the bottle, whereby the acoustical test turned out to be rather sensitive, and by taking a sample with a pipette. When polymerization seemed to have occurred or after a certain minimum storage time (20 days) the bottles were sliced open and the solution were examined visually. According to the results of the above described Arrhenius investigation at least a thermal stability of about 11 days at 60° C. is necessary so that the dental adhesive composition may be stored at room temperature. The Test Formulation containing different inhibitors in different amounts, was investigated regarding its thermal stability by storing these formulations at 60° C. The samples were daily examined. In case of polymerization a gel or a solid, polymerized body was observed. The dark shaded columns represent formulations with inhibitors, respectively inhibitor concentrations, which were polymerized after the depicted time at 60° C. The light shaded columns represent formulations, which were not polymerized until the depicted time. Usually after 20 days the investigation was terminated.

Compound: Cc1cc(C(C)(C)C)c(O)c(C(C)(C)C)c1 [BHT, 2,6-di-tert.-butyl-p-cresol]
sufficient thermal stability (storage at 60° C.): failed to provide a sufficient thermal stability

thermal stability of formulation FBE-05.44.01 (storage at 60° C.): polymerized after the recorded time
Compound: CC(C)(c1ccc(O)cc1)c1ccc(O)cc1 [Bisphenol A]

stabilization effect (inhibitor 0.15 mol % in test formulation, storage at 60° C.): some stabilization effect
Compound: Oc1ccc(O)cc1 [HQ, hydroquinone]

Compound: COc1ccc(O)cc1 [HQME, hydroquinone monomethylether]
visual examination after slicing open the bottle (0.49 mol % inhibitor in FBE-05.44.01, storage at 60° C.): small pieces of gel were found at the bottom
visual examination after slicing open the bottle (0.697 mol % inhibitor in FBE-05.44.01, storage at 60° C.): small pieces of gel were found at the bottom
sufficient thermal stability (storage at 60° C.): failed to provide a sufficient thermal stability

thermal stability of formulation FBE-05.44.01 (storage at 60° C.): polymerized after the recorded time
Compound: CCCOC(=O)c1cc(O)c(O)c(O)c1 [PG, Propyl gallate]

Compound: CC(C)(C)c1ccc(O)c(O)c1 [TBC]
visual examination after slicing open the bottle (0.193 mol % inhibitor, storage at 60° C.): some pieces of gel were found at the bottom

visual examination after slicing open the bottles (0.013 mol % inhibitor, after 20 days at 60° C.): polymerization was found
visual examination after slicing open the bottles (after 14 days and after 20 days at 60° C., FBE-05.44.01): No hints of a polymerization were found
Compound: CC(C)(C)c1cc(O)ccc1O [TBHQ, tert-Butylhydroquinone]

Compound: COc1ccc(O)c(C(C)(C)C)c1 [tert.-Butylhydroxyanisole, tert.-Butylhydroxyanisol]
visual examination after slicing open the bottles (0.047 mol % inhibitor, after 14 days at 60° C.): some pieces of gel
visual examination after slicing open the bottles (0.047 mol % inhibitor, after 20 days at 60° C.): some small pieces of gel
visual examination after slicing open the bottles (0.096 mol % inhibitor, after 20 days at 60° C.): No indication of polymerization
visual examination after slicing open the bottles (0.147 mol % inhibitor, after 20 days at 60° C.): No indication of polymerization
